The values below come from US6492124B1, “Trance activated signal transduction pathways in osteoclasts” (The Rockefeller University, priority 1999, dated 2002).

Type in all cases: cell-based, mouse
Assay [1] concerns PKB. Kind of assay: PKB activation in osteoclasts (phospho-PKB Western blot). To be noted: for TRANCE-induced PKB activation (phosphorylated form of PKB): osteoclasts pretreated 90 min with inhibitor 10 μM, then TRANCE 1 μg/ml. As to the method:
(§1) FIG. 1. […] (A) Mature bone marrow-derived osteoclasts were stimulated for the indicated times with recombinant hCD8-TRANCE (TRANCE; 1 μg/ml). Levels of phosphorylated forms of p44/p42 ERK (p44 ERK^P and p42 ERK^P), IκBα (IκB-α^P) and PKB (PKB^P) in whole cell extracts were determined using phospho-peptide-specific antibodies as indicated in the figure. […] (B) as in (A) except the use of mature bone marrow-derived dendritic cells instead of osteoclasts.
(§2) FIG. 2. […] (A) Osteoclasts were serum starved and then pretreated for 90 min with LY294002 (10 μM), Herbimycin A (Herb. A; 10 μM), and PP1 (10 μM) inhibitors which are specific for PI3-kinase, PTKs, and Src-family kinases, respectively, were stimulated for indicated times with TRANCE (1 μg/ml). Levels of phosphorylated p44/p42 ERK, PKB, and IκB-α were determined as described in FIG. 1. Cells pretreated with vehicle (DMSO) were used as a negative control. (B) as in (A) except the use of mature bone marrow-derived dendritic cells.
(§3) Primary cells and cell lines. […] In brief, bone marrow cells from tibiae and femur of 4-6 week old mice (C57BL/6, Jackson Laboratories) were cultured overnight in media (α-MEM, 10% FCS) in the presence of CSF-1 (5 ng/ml). […] For experiments described in this study, only adherent cells were used after extensive washing. […] After allowing them adhere for 2 hours to a tissue culture dish, contaminating floater cells were washed away and mature dendritic cells were obtained by overnight culture.
Cell stimulation, cell transfection and in vitro assays. In vitro differentiated mature dendritic cells, macrophages and osteoclasts were washed to remove exogenous growth factors, cultured in media with low serum (0.5% FCS, 6 hours), then stimulated by adding various cytokines in the presence or absence of inhibitors for various times as indicated. After stimulation, the cells were washed in ice-cold PBS, and subjected to Western blot analysis or immunoprecipitation as described below.
All cells were harvested and lysed in extraction buffer (20 mM HEPES NaOH (pH 7.4), 150 mM NaCl, 1% Triton X-100, 10% glycerol, 10 mM EDTA, 1 mM Na3VO4, 1 mM phenylmethylsulfonylfluoride, 1 μg/ml leupeptin, and 0.1 U of aprotinin per ml) and cleared by centrifugation to obtain whole cell extracts. Protein assays were performed to ensure equal amounts of lysates were used in each sample.
(Immunoblotting shows a protein as a band on a membrane.)

Assay [2] relates to NF-κB. The assay can be described thus: NF-κB activation measured by IκB-α phosphorylation/degradation in osteoclasts and dendritic cells (Western blot). To be noted: osteoclasts and dendritic cells (FIGS. 2A and 2B), inhibitor 10 μM, TRANCE 1 μg/ml. The method, then: as §1, §2, §3
Cell stimulation, cell transfection and in vitro assays. In vitro differentiated mature dendritic cells, macrophages and osteoclasts were washed to remove exogenous growth factors, cultured in media with low serum (0.5% FCS, 6 hours), then stimulated by adding various cytokines in the presence or absence of inhibitors for various times as indicated. After stimulation, the cells were washed in ice-cold PBS, and subjected to Western blot analysis or immunoprecipitation as described below. […]

Assay [3] deals with osteoclasts. Kind of assay: Osteoclast differentiation with TRANCE plus CSF-1 (TRAP solution assay). To be noted: TRANCE 100 ng/ml plus CSF-1 50 ng/ml; LY294002 200 nM and 800 nM. The method, then:
FIG. 3. c-Src is required for TRANCE-induced PKB activation and osteoclast survival. (A) c-Src was immunoprecipitated from osteoclasts, dendritic cells and macrophages stimulated with TRANCE (1 μg/ml) for the indicated times using an anti-c-Src-specific monoclonal antibody (327). PTK activity of the c-Src immunprecipitates were measured in vitro using SAM68, a PTK specific substrate. The degree of SAM68 phosphorylation was determined by Western blot analysis using an anti-phospho-tyrosine antibody (4G10) and densitometry. Note that c-Src kinase activity was not detectable in TRANCE-treated macrophages most likely due to low levels of c-Src in these cells (Lacey, et al., supra, 1998). (B) Osteoclasts derived from wild type and c-Src deficient mice were stimulated with TRANCE (5 μg/ml) for 10 min and the levels of phosphorylated PKB (PKB^P), total PKB, and total IκBα were determined as in FIG. 1. (C) Osteoclasts from wild-type (open bars) and c-Src deficient (solid bars) mice were washed and then cultured for an additional 24 hours in media alone (Medium) or in media with TRANCE (5 μg/ml) or CSF-1 (10 ng/ml). TRAP solution assays were performed and percent survival calculated. The experiment was performed in triplicate and the mean values with positive standard deviations are shown. […] Osteoclasts were detected by TRAP solution assays. […]

The test system of assay [4] is PKB. Kind of assay: PKB activation in dendritic cells (phospho-PKB Western blot). The method, then:
FIG. 1. TRANCE activates p44/42 ERK, NF-κB and PKB in osteoclasts and dendritic cells. (A) Mature bone marrow-derived osteoclasts were stimulated for the indicated times with recombinant hCD8-TRANCE (TRANCE; 1 μg/ml). Levels of phosphorylated forms of p44/p42 ERK (p44 ERK^P and p42 ERK^P), IκBα (IκB-α^P) and PKB (PKB^P) in whole cell extracts were determined using phospho-peptide-specific antibodies as indicated in the figure. The membranes were stripped and incubated with antibodies against the p44/p42 ERK, IκB-α, and PKB as indicated to confirm that similar amounts of whole cell extracts were analyzed. Note the decrease of IκB-α after 10 min of treatment due to its degradation. (B) as in (A) except the use of mature bone marrow-derived dendritic cells instead of osteoclasts.
FIG. 2. TRANCE-induced PKB activation in osteoclasts and dendritic cells is blocked by inhibitors of PI3-kinase, tyrosine kinases and Src family kinases. (A) Osteoclasts were serum starved and then pretreated for 90 min with LY294002 (10 μM), Herbimycin A (Herb. A; 10 μM), and PP1 (10 μM) inhibitors which are specific for PI3-kinase, PTKs, and Src-family kinases, respectively, were stimulated for indicated times with TRANCE (1 μg/ml). Levels of phosphorylated p44/p42 ERK, PKB, and IκB-α were determined as described in FIG. 1. Cells pretreated with vehicle (DMSO) were used as a negative control. (B) as in (A) except the use of mature bone marrow-derived dendritic cells.
FIG. 6. Cytokine receptors that engage TRAF6 activate PKB through Src-family kinases. (A) Dendritic cells were treated with TNF (10 ng/ml), TRANCE (5 μg/ml), LPS (50 μg/ml), or IL-1α (20 ng/ml) for the indicated times (min). The activation of PKB was determined in whole cell extracts using a phospho-PKB-specific antibody as described in FIG. 1. (B) Dendritic cells were pretreated with vehicle (DMSO) or the Src-family kinase inhibitor, PP1 (10 μM) for 90 minutes followed by a 15 minute treatment with TRANCE (5 μg/ml), LPS (50 μg/ml), or IL-1α (20 ng/ml) or no treatment at all (−). The activation of PKB was determined as described in FIG. 1.
Primary cells and cell lines. Osteoclasts and macrophages were generated from bone marrow precursors as described (Wani, et al., Endocrinology, 140:[…], 1999). In brief, bone marrow cells from tibiae and femur of 4-6 week old mice (C57BL/6, Jackson Laboratories) were cultured overnight in media (α-MEM, 10% FCS) in the presence of CSF-1 (5 ng/ml). After 24 hours, non-adherent cells were harvested, washed, and further cultured in media with CSF-1 (50 ng/ml) plus TRANCE (10 ng/ml) to develop osteoclasts, or with CSF-1 alone to develop macrophages. Using these conditions, after 4 days of culture, greater than 95 percent of the adherent cells were osteoclasts or macrophages. For experiments described in this study, only adherent cells were used after extensive washing. Mature dendritic cells were generated from bone marrow precursors of 4-6 week old female C57BL/6 mice (C57BL/6, Jackson Laboratories) cultured in media (RPMI1640, 5% FBS) and GM-CSF (1:30 cultured supernatant from the J558 cell line, a gift from Dr. R. M. Steinman, The Rockefeller University) for 8 days as previously described (Inaba, et al., J. Exp. Med., 176:1693-1702, 1992). To generate osteoclasts and dendritic cells from c-Src deficient mice, spleen cells, which contain hematopoietic precursors due to extramedullary hematopoeisis, were substituted for bone marrow cells as previously described (Schwartzberg, et al., Genes Dev., 11:2835-2844, 1997). Mature spleen-derived dendritic cells were isolated from spleens treated with collagenase (40 U/ml; Boehinger Mannheim) and subjected to a Nycodenz centrifugation gradient (14.5%; Nycomed) to obtain low density cells. After allowing them adhere for 2 hours to a tissue culture dish, contaminating floater cells were washed away and mature dendritic cells were obtained by overnight culture.
Cell stimulation, cell transfection and in vitro assays. […]

In assay [5] the test system is mature osteoclasts. The assay can be described thus: Osteoclast survival assay (TRAP solution assay). To be noted: 24 hours; TRANCE 5 μg/ml or CSF-1 10 ng/ml.
Protocol: TRAP solution assays were performed and percent survival calculated. The experiment was performed in triplicate and the mean values with positive standard deviations are shown. […] (E) Mature osteoclasts were washed extensively and then cultured for an additional 24 hr in media without (−) or with TRANCE (5 μg/ml; +) in the absence or presence of increasing doses (200 nM and 800 nM) of LY294002. TRAP solution assays were performed and percent survival was as described in Experimental Procedures. The experiment was performed in triplicate and the mean values with positive standard deviations are shown.
Osteoclast survival assays. In vitro differentiated mature osteoclasts were washed 3 times in media then further cultured for 24 hr in media alone (control) or in media with TRANCE (5 μg/ml) or CSF-1 (10 ng/ml) in the presence or absence of LY294002 as indicated.
Specific cell survival (%)=(A405, 24 hr−A405. background)*100/(A405, 0 hr−A405, background)

As for `COc1cccc(-c2cc(=O)c3ccccc3o2)c1N` [PD98059, reference compound], the “TRANCE-induced PKB activation” value in assay [1] (MEK inhibitor, cell type not stated (osteoclasts and dendritic cells studied), data not shown) is given as “failed to inhibit”.
Regarding `CO[C@H]1[C@@H](OC)C[C@H](C)[C@@H](OC)C2=CC(=O)C=C(NC(=O)/C(C)=C/C=C\[C@H](OC)[C@@H](OC(N)=O)/C(C)=C/[C@@H]1C)C2=O` [herbimycin A, reference compound], the “TRANCE-induced PKB activation (phosphorylated form of PKB)” value in assay [1] is listed as “blocked”. Also, in assay [2], the “NF-κB activation as measured by IκB-α degradation” value is given as “neither LY294002, herbimycin A, nor PP1 significantly affected”.
For the molecule `O=c1cc(N2CCOCC2)oc2c(-c3ccccc3)cccc12` [LY294002], the osteoclast differentiation entry in assay [3] is reported as “did not inhibit”.
As for `Cc1ccc(-c2nn(C(C)(C)C)c3ncnc(N)c23)cc1` [PP1, reference compound], the “TRANCE-induced PKB activation (phosphorylated form of PKB)” value is listed as “inhibited” in assay [4] (dendritic cells pretreated 90 min with inhibitor 10 μM, then TRANCE 1 μg/ml) and “blocked” in assay [1]. In assay [4] (dendritic cells pretreated with PP1 10 μM 90 minutes, then IL-1α 20 ng/ml 15 minutes), the “activation of PKB by IL-1α” value was “inhibited”. Further, the “activation of PKB by LPS” value in assay [4] (dendritic cells pretreated with PP1 10 μM 90 minutes, then LPS 50 μg/ml 15 minutes) is recorded as “inhibited”. Moreover, the “NF-κB activation as measured by IκB-α degradation” value in assay [2] is recorded as “neither LY294002, herbimycin A, nor PP1 significantly affected”.

B1: IL-1α: recombinant IL-1 purchased from R&D Systems (protein, UniProt P01583 113-271, looked up)
Interleukin-1 alpha: SAPFSFLSNVKYNFMRIIKYEFILNDALNQSIIRANDQYLTAAALHNLDEAVKFDMGAYKSSKDDAKITVILRISKTQLYVTAQDEDQPVLLKEMPEIPKTITGSETNLLFFWETHGTKNYFTSVAHPNLFIATKQDYWVCLAGGPPSITDFQILENQA
Take B1: in assay [4] (TNF 10 ng/ml, TRANCE 5 μg/ml, LPS 50 μg/ml, IL-1α 20 ng/ml, CD40L data not shown), the “PKB activation in dendritic cells stimulated with cytokine” value was “activated”.

B2: CSF-1: recombinant CSF-1 purchased from R&D Systems (protein, UniProt P09603 33-554, looked up)
Macrophage colony-stimulating …: EEVSEYCSHMIGSGHLQSLQRLIDSQMETSCQITFEFVDQEQLKDPVCYLKKAFLLVQDIMEDTMRFRDNTPNAIAIVQLQELSLRLKSCFTKDYEEHDKACVRTFYETPLQLLEKVKNVFNETKNLLDKDWNIFSKNCNNSFAECSSQDVVTKPDCNCLYPKAIPSSDPASVSPHQPLAPSMAPVAGLTWEDSEGTEGSSLLPGEQPLHTVDPGSAKQRPPRSTCQSFEPPETPVVKDSTIGGSPQPRPSVGAFNPGMEDILDSAMGTNWVPEEASGEASEIPVPQGTELSPSRPGGGSMQTEPARPSNFLSASSPLPASAKGQQPADVTGTALPRVGPVRPTGQDWNHTPQKTDHPSALLRDPPEPGSPRISSLRPQGLSNPSTLSAQPQLSRSHSSGSVLPLGELEGRRSTRDRRSPAEPEGGPASEGAARPLPRFNSVPLTDTGHERQSEGSFSPQLQESVFHLLVPSVILVLLAVGGLLFYRWRRRSHQEPQRADSPLEQPEGSPLTQDDRQVELPV
Regarding B2, the “cytokine-promoted survival in c-Src−/− osteoclasts compared to wild-type” value in assay [5] is “not reduced”.
